Test results taken from patent publication US8940857B2, “Methods and compositions for enhancing delivery of double-stranded RNA or a double-stranded hybrid nucleic acid to regulate gene expression in mammalian cells” (Marina Biotech, Inc., priority 2004, dated 2015).
Oligonucleotides are written 5' to 3', each unit as a sugar letter and its base; * is a phosphorothioate linkage, no mark a phosphodiester; rarer units and linkages stand in square brackets, end groups in braces. Plain capitals give the bases only. No end group written: not given here. maleimide = maleimide group (amino-terminal modification); d = 2'-deoxy (DNA); r = 2'-OH (RNA)

Experiments:
beta-galactosidase mRNA = assay: Transfection of 9L/LacZ cells with siRNA and lipofectamine, beta-Gal/BCA assay (silencing of beta-galactosidase); type: cell-based; conditions: 9L/beta-gal cells, transfected with lipofectamine; control = cells transfected by lipofectamine alone; lower = greater efficacy
Experimental: Transfection of 9L/LacZ Cells:
• a) Take saturated 9L/LacZ culture from T75 flask, detach cell and dilute into 10 ml with complete medium (DMEM, 1× PS, 1× Na Pyruvate, 1× NEAA). • b) Further dilute the cell to 1:15, and seed 100 μl into each 96 well, which should give 50% confluence cell the next day for transfection. […] Flow Cytometry Measurement of FITC/FAM Conjugated siRNA • a) After transfection, incubate cell for at least 3 hours. • b) Wash with 200 μl PBS. • c) Detach cell with 15 μl TE, incubate at 37° C. • d) Re-suspend five wells with 30 μl FACS solution (PBS with 0.5% BSA, and 0.1% sodium Azide) • e) Combine all five wells into a tube. • f) Add PI 5 μl into each tube. • g) Analyze the cells with fluorescence activated cell sorting (FCAS) with BD FACscan instrument according to manufacture's instruction.
The transfection was performed with either regular siRNA or cholesterol-conjugated siRNA with lipofectamine (Invitrogen) on 9L/beta-gal cells. The siRNA was designed to specifically knock down beta-galactosidase mRNA and activities are expressed as percentage of beta-gal activities from control (transfected cells by lipofectamine alone). […]

epithelial monolayers = assay: Peptide-mediated changes in trans-epithelial electrical resistance (TEER), permeation across epithelial monolayers; type: cell-based; conditions: measured by peptide-mediated changes in TEER

Substance	Activity (% of control): beta-galactosidase activity remaining after the transfection (beta-galactosidase mRNA)	Effects (activity to enhance permeation across epithelial monolayers) (epithelial monolayers)
AA: siRNA construct with no cholesterol conjugated to any of the ends of the sense or antisense RNA strands (SEQ ID NO: 14/15) (sense rCrUrArCrArCrArArArUrCrArGrCrGrArUrUrUdTdT; antisense rArArArUrCrGrCrUrGrArUrUrUrGrUrGrUrArGdTdT)	23.12 % of control	
BrAc-GWTLNSAGYLLGKINLKALAALAKKILamide (SEQ ID NO: 3) [PN0064]		+
BrAc-KLALKLALKALKAALKLA-amide (SEQ ID NO: 4) (HELM PEPTIDE1{[O=C(CBr)[*:2]].K.L.A.L.K.L.A.L.K.A.L.K.A.A.L.K.L.A.[am]}$$$$V2.0; SMILES CC(C)C[C@H](NC(=O)[C@H](C)NC(=O)[C@H](CCCCN)NC(=O)[C@H](CC(C)C)NC(=O)[C@H](C)NC(=O)[C@H](CC(C)C)NC(=O)[C@H](CCCCN)NC(=O)[C@H](CC(C)C)NC(=O)[C@H](C)NC(=O)[C@H](CC(C)C)NC(=O)[C@H](CCCCN)NC(=O)CBr)C(=O)N[C@@H](CCCCN)C(=O)N[C@@H](C)C(=O)N[C@@H](C)C(=O)N[C@@H](CC(C)C)C(=O)N[C@@H](CCCCN)C(=O)N[C@@H](CC(C)C)C(=O)N[C@@H](C)C(N)=O) [PN0068]		+
GRKKRRQRRRPQ-amide (SEQ ID NO: 5) (GRKKRRQRRRPQ-NH2) [PN0069]		−
Maleimide-GLGSLLKKAGKKLKQPKSKRKV-amide (SEQ ID NO: 12) (maleimide-GLGSLLKKAGKKLKQPKSKRKV-NH2) [PN283]		+
NH2-AAVALLPAVLLALLAPRKKRRQRRRPPQ-amide (SEQ ID NO: 8) (H-AAVALLPAVLLALLAPRKKRRQRRRPPQ-NH2) [PN027]		+
NH2-KETWWETWWTEWSQPGRKKRRQRRRPPQ-amide (SEQ ID NO: 11) (H-KETWWETWWTEWSQPGRKKRRQRRRPPQ-NH2) [PN183]		+
NH2-LLETLLKPFQCRICMRNFSTRQARRNHRRRHRR-amide (SEQ ID NO: 9) (H-LLETLLKPFQCRICMRNFSTRQARRNHRRRHRR-NH2; cysteine pairing not given here) [PN202]		+
NH2-RRRQRRKRGGDIMGEWGNEIFGAIAGFLG-amide (SEQ ID NO: 10) (H-RRRQRRKRGGDIMGEWGNEIFGAIAGFLG-NH2; listed as Influenza virus) [PN250]		+
RKKRRQRRRPPQCAAVALLPAVLLALLAP-amide (SEQ ID NO: 1) (RKKRRQRRRPPQCAAVALLPAVLLALLAP-NH2) [PN0028]		+
RQIKIWFQNRRMKWKK-amide (SEQ ID NO: 2) (RQIKIWFQNRRMKWKK-NH2) [PN0058]		+
RRRRRRR (SEQ ID NO: 6) [PN0071]		−
